The values that follow are results of earlier work, collected in patent US10342816B2, “Aqueous ophthalmic formulations based on azithromycin” (MEDIVIS S.R.L., priority 2013, dated 2019).

The conditions of series [1]: pharmacopoeia.
The conditions of series [2]: aqueous solution, phosphate buffer, low ionic strength.

With `CC[C@H]1OC(=O)[C@H](C)[C@@H](O[C@H]2CC(C)(OC)[C@@H](O)C(C)O2)[C@H](C)[C@@H](O[C@@H]2OC(C)CC(N(C)C)C2O)[C@](C)(O)C[C@@H](C)CN(C)[C@H](C)[C@@H](O)[C@]1(C)O` (some centres unmarked) [azithromycin], the solubility in water result in series [1] was “poorly soluble in water”. Besides, the “pH at which the kinetics of the hydrolytic phenomenon has the minimum value” in series [2] was 6.3.
